Assay results reported in patent publication US6914045B2, “Glycopeptide antibiotics” (Wyeth Holdings Corporation, priority 2001, dated 2005).
≈ marks a conversion by molar mass, not a printed value.

Tests used:
Enterococcus sp. = test: in vitro antibacterial evaluation, MIC by broth dilution; type: cell-based; conditions: broth dilution, 18 hours at 35° C.
Procedure, shortened: (§1)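 Test organisms, which included recent clinical isolates resistant to methicillin, penicillin and/or vancomycin, were inoculated at 5×10^5 CFU/mL into Muller-Hinton II […] containing antibiotic at 64-0.06 μg/mL. Minimum inhibitory concentrations were then read as the lowest level inhibiting growth.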

Staphylococcus sp. = test: as above; type: cell-based; conditions: broth dilution, 18 hours at 35° C.
Procedure, shortened: as §1

Streptococcus sp. = test: as above; type: cell-based; conditions: broth dilution, 18 hours at 35° C.
Procedure, shortened: as §1

Escherichia coli = test: as above; type: cell-based; conditions: 18 hours at 35° C.
Procedure, shortened: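 MIC is the lowest antibiotic concentration (tested 64-0.06 μg/mL) preventing growth of a 5×10^5 CFU/mL inoculum. Determined by broth dilution in Mueller-Hinton II medium following NCCLS standard M7-A2.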

[1] = anatomic pathology (histopathology of heart and kidney) in mice; type: in vivo; conditions: CD-1 mice, 20 mg/kg intravenously daily for 9 days, necropsy day 10, microscopic histopathology
Description: Samples of tissues from necropsied mice were formalin-fixed, paraffin-embedded, sectioned, stained with hematoxylin and eosin, and examined microscopically. Histopathologic findings were recorded. These findings were subjectively graded on a scale corresponding to slight, mild, moderate, marked and severe as compared to untreated controls.

CN=C1N(C)CC(C(O)C2NC(=O)C(Cc3ccc(OC4OC(CO)C(OC5OC(CO)C(O)C(O)C5O)C(O)C4O)cc3)NC(=O)C(C(C)c3ccccc3)NC(=O)CNC(=O)C(CO)NC(=O)C(C(O)C3CN(C)C(=NC)N3C3OC(CO)C(O)C(O)C3O)NC2=O)N1C (stereo not drawn) [Example 64, Cyclo[glycyl-β-methylphenylalanyl-O-(4-O-hexopyranosylhexopyranosyl)tyrosyl-3-(1,3-dimethyl-2-(methylimino)imidazolidin-4-yl)seryl-3-[3-hexopyranosyl-1-methyl-2-(methylimino)imidazolidin-4-yl]-serylseryl]]
MIC Enterococcus avium (GC 4558) (Enterococcus sp.; Enterococcus avium (GC 4558)): 128 µg/mL (≈ 93.7 µM)
MIC Enterococcus faecalis (ATCC 29212) (Enterococcus sp.; Enterococcus faecalis (ATCC 29212)): >128 µg/mL
MIC Enterococcus faecalis (GC 4552) (Enterococcus sp.; Enterococcus faecalis (GC 4552)): >128 µg/mL
MIC Enterococcus faecalis (GC 4553) (Enterococcus sp.; Enterococcus faecalis (GC 4553)): >128 µg/mL
MIC Enterococcus faecalis (GC 4554) (Enterococcus sp.; Enterococcus faecalis (GC 4554)): >128 µg/mL
MIC Enterococcus faecalis (GC 6189) (Enterococcus sp.; Enterococcus faecalis (GC 6189)): >128 µg/mL
MIC Enterococcus faecium (GC 2243) (Enterococcus sp.; Enterococcus faecium (GC 2243)): >128 µg/mL
MIC Enterococcus faecium (GC 4556) (Enterococcus sp.; Enterococcus faecium (GC 4556)): >128 µg/mL
MIC Enterococcus faecium (GC 4557) (Enterococcus sp.; Enterococcus faecium (GC 4557)): >128 µg/mL
MIC Enterococcus avium (GC 4558) (Enterococcus sp.): 128 µg/mL (≈ 93.7 µM)
MIC Enterococcus faecalis (ATCC 29212) (Enterococcus sp.): >128 µg/mL
MIC Enterococcus faecalis (GC 2242) (Enterococcus sp.): >128 µg/mL
MIC Enterococcus faecalis (GC 2691) (Enterococcus sp.): >128 µg/mL
MIC Enterococcus faecalis (GC 3059) (Enterococcus sp.): >128 µg/mL
MIC Enterococcus faecalis (GC 4552) (Enterococcus sp.): >128 µg/mL
MIC Enterococcus faecalis (GC 4553) (Enterococcus sp.): >128 µg/mL
MIC Enterococcus faecalis (GC 4554) (Enterococcus sp.): >128 µg/mL
MIC Enterococcus faecalis (GC 6189) (Enterococcus sp.): >128 µg/mL
MIC Enterococcus faecium (GC 2243) (Enterococcus sp.): >128 µg/mL
MIC Enterococcus faecium (GC 4556) (Enterococcus sp.): >128 µg/mL
MIC Enterococcus faecium (GC 4557) (Enterococcus sp.): >128 µg/mL
MIC Enterococcus faecalis (GC 2242) (Enterococcus sp.; strain GC 2242): >128 µg/mL
MIC Enterococcus faecalis (GC 2691) (Enterococcus sp.; strain GC 2691): >128 µg/mL
MIC Enterococcus faecalis (GC 3059) (Enterococcus sp.; strain GC 3059): >128 µg/mL
MIC Staphylococcus aureus (ATCC 29213) (Staphylococcus sp.; strain ATCC 29213): >128 µg/mL
MIC Staphylococcus aureus (GC 1131) (Staphylococcus sp.; strain GC 1131): >128 µg/mL
MIC Staphylococcus aureus (GC 3051) (Staphylococcus sp.; strain GC 3051): >128 µg/mL
MIC Staphylococcus aureus (GC 3053) (Staphylococcus sp.; strain GC 3053): >128 µg/mL
MIC Staphylococcus aureus (GC 4541) (Staphylococcus sp.; strain GC 4541): >128 µg/mL
MIC Staphylococcus aureus (GC 4542) (Staphylococcus sp.; strain GC 4542): >128 µg/mL
MIC Staphylococcus aureus-SMITH (GC 4543) (Staphylococcus sp.; strain GC 4543): >128 µg/mL
MIC Staphylococcus aureus (GC 4544) (Staphylococcus sp.; strain GC 4544): >128 µg/mL
MIC Staphylococcus aureus (GC 4545) (Staphylococcus sp.; strain GC 4545): >128 µg/mL
MIC Staphylococcus haemolyticus (GC 4546) (Staphylococcus sp.; strain GC 4546): >128 µg/mL
MIC Coagulase Negative Staphylococcus (GC 4547) (Staphylococcus sp.; strain GC 4547): >128 µg/mL
MIC Coagulase Negative Staphylococcus (GC 4548) (Staphylococcus sp.; strain GC 4548): >128 µg/mL
MIC Coagulase Negative Staphylococcus (GC 4549) (Staphylococcus sp.; strain GC 4549): >128 µg/mL
MIC Coagulase Negative Staphylococcus (GC 4551) (Staphylococcus sp.; strain GC 4551): >128 µg/mL
MIC Coagulase Negative Staphylococcus (GC 6257) (Staphylococcus sp.; strain GC 6257): >128 µg/mL
MIC Streptococcus agalactiae (GC 4564) (Streptococcus sp.): 128 µg/mL (≈ 93.7 µM)
MIC Streptococcus pneumoniae (ATCC 6301) (Streptococcus sp.): >128 µg/mL
MIC Streptococcus pneumoniae (GC 1894) (Streptococcus sp.): 128 µg/mL (≈ 93.7 µM)
MIC Streptococcus pneumoniae (GC 4565) (Streptococcus sp.): >128 µg/mL
MIC Streptococcus pyogenes (GC 4563) (Streptococcus sp.): >128 µg/mL
MIC Streptococcus pneumoniae (ATCC 6301) (Streptococcus sp.; strain ATCC 6301): >128 µg/mL
MIC Streptococcus pneumoniae (GC 1894) (Streptococcus sp.; strain GC 1894): 128 µg/mL (≈ 93.7 µM)
MIC Streptococcus pyogenes (GC 4563) (Streptococcus sp.; strain GC 4563): >128 µg/mL
MIC Streptococcus agalactiae (GC 4564) (Streptococcus sp.; strain GC 4564): 128 µg/mL (≈ 93.7 µM)
MIC Streptococcus pneumoniae (GC 4565) (Streptococcus sp.; strain GC 4565): >128 µg/mL
MIC Escherichia coli (ATCC 25922) (Escherichia coli): >128 µg/mL
MIC Escherichia coli (GC 4559) (Escherichia coli): >128 µg/mL
MIC Escherichia coli (GC 4560) (Escherichia coli): >128 µg/mL
Anatomical Pathology (Day 10), Heart [1]: 0
Anatomical Pathology (Day 10), Kidney [1]: 0
